Results taken from patent publication US20110212913A1, “THERAPEUTIC COMPOSITIONS COMPRISING PHENOLIC ACIDS FOR TREATING CONDITIONS RELATED TO INAPPROPRIATE PLATELET AGGREGATION” (PROVEXIS NATURAL PRODUCTS LIMITED, priority 2008, published 2011).
≈ marks a conversion by molar mass, not a printed value.

What was measured:
Assay type in all cases: cell-based, human
[1] = tested on: platelet aggregation in platelet-rich plasma, agonist ADP; experiment: ADP-induced platelet aggregation in platelet-rich plasma (aggregometer); conditions: ADP 10 μmol/L; for IC50: Homo sapiens, Platelet
Description: (§1) The experimental protocol described below was devised to determine the IC50 values of compounds isolated as described in 1.1.3. Crude bioassays to evaluate inhibition of platelet aggregation in vitro were performed on some crude extracts (data not shown) to help select fine fractions/compounds identified by HPLC for functional activity. This approach was considered necessary to avoid the need to assay each and ever compound (the would be thousands) in the fruit extracts.
(§2) An IC50 value represents the amount of a compound, in mg, required to inhibit by 50% the platelet aggregation induced under standardised conditions in 1 mL platelet-rich plasma, in comparison with control samples.
(§3) Blood for in vitro studies was collected from drug-free, healthy human volunteers, both male and female, aged 18-60 years, with normal platelet function. Subjects declared that they had not consumed drugs or supplements known to affect platelet function for a minimum of 10 days before providing a blood sample. Blood was collected after single venepuncture to an antecubital vein through siliconized needles into plastic citrated blood collection tubes (Sarstedt Monovettes, final concentration sodium citrate, 13 mmol/L). All blood was maintained at 37° C. from the time of blood sampling.
(§4) Platelet-rich plasma (PRP) was obtained by centrifugation of citrated blood for 15 minutes at 200×g, and was adjusted with platelet-poor plasma to a standard platelet number of 320±20×10^9/L prior to use. PRP was used for platelet function measurements within two hours.
(§5) The following agonists were used for platelet function measurements. Adenosine diphosphate (ADP), final concentration 10 μmol/L; collagen, final concentration 5 mg/L; arachidonic acid, final concentration […] (all from Helena Biosciences, Sunderland, UK); thrombin receptor-activating peptide (TRAP), final concentration […] (Sigma-Aldrich, Poole, UK). Agonists were prepared from stock solutions immediately before use, diluting into warmed physiological saline (0.9% NaCI).
(§6) Individual platelet inhibitors were prepared at a concentration of between 500 g/L and 100 g/L in either physiological saline, ultra-pure methanol or ultra-pure DMSO (Sigma-Aldrich, Poole, UK) and stored frozen until required. Stock solutions were then diluted with physiological saline immediately prior to use.
(§7) 450 μL PRP was incubated with 50 μL diluted inhibitor solution at 37° C. for 10 minutes, in low-retention epindorrfs. Inhibitor solutions were diluted such that the final concentration of methanol or DMSO in the PRP sample never exceeded 2%. Suitable control samples, containing 50 μL physiological saline matched for methanol or DMSO content as appropriate, were incubated simultaneously. For each inhibitor compound, 5 incubation concentrations were used; final concentrations of 0.05 mg/mL, 0.10 mg/mL, 1.00 mg/mL, 5.00 mg/mL and 10 mg/mL were used as standard.
(§8) After incubation with platelet inhibitors, PRP samples were transferred to glass cuvettes and the extent of aggregation induced by either ADP, collagen, TRAP or arachidonic acid was monitored over 10 minutes on a platelet aggregometer (PACKS 4, Helena Biosciences, Sunderland, UK). A control sample was run with each sample set. From the aggregation curves generated, the area under the curve was calculated for each PRP sample, and the inhibition of aggregation achieved at each inhibitor concentration was calculated by comparing the area under the curve for these PRP samples with that of the control sample. The inhibition of aggregation was expressed as % inhibition, compared to control, and from the 6 data points obtained per inhibitor compound, a dose-response curve was constructed. This curve was then used to predict the IC50 value for that inhibitor compound, as shown in 1.2, Results, and FIG. 1.
(§9) For each blood sample obtained, 6-point dose-response curves for 2 different inhibitory compounds could be generated. […]

[2] = tested on: platelet aggregation in platelet-rich plasma, agonist collagen; experiment: Collagen-induced platelet aggregation in platelet-rich plasma (aggregometer); conditions: collagen 5 mg/L; for IC50: Homo sapiens, Platelet
Description: as §1, §2, §3, §4, §5, §6, §7, §8, §9

[3] = tested on: platelet aggregation in platelet-rich plasma, agonist arachidonic acid; experiment: Arachidonic acid-induced platelet aggregation in platelet-rich plasma (aggregometer); conditions: arachidonic acid 500 U/L; for IC50: Homo sapiens, Platelet
Description: as §1, §2, §3, §4, §5, §6, §7, §8, §9

[4] = tested on: platelet aggregation in platelet-rich plasma, agonist thrombin receptor-activating peptide (TRAP); experiment: TRAP-induced platelet aggregation in platelet-rich plasma (aggregometer); conditions: TRAP 25 nmol/L; for IC50: Homo sapiens, Platelet
Description: as §1, §2, §3, §4, §5, §6, §7, §8, §9

[5] = Table 3, mg needed for 50% inhibition in 1 mL PRP, compounds isolated from tomato extract
[6] = Table 4, compounds from sources other than tomatoes, mg per 1 mL PRP

Compound | IC50 [4, 6] | IC50 [1, 6] | IC50 [2, 6] | IC50 [3, 6] | further results
Nc1nc2c(ncn2[C@@H]2O[C@H](CO)[C@@H](O)[C@H]2O)c(=O)[nH]1 [Compound 4, Guanosine] |  |  |  |  | IC50 [1, 5]: 0.25 mg/mL (≈ 0.883 mM); IC50 [2, 5]: 0.53 mg/mL (≈ 1.87 mM); IC50 [3, 5]: 0.91 mg/mL (≈ 3.21 mM)
O=C(O)c1ccc(O)c(O)c1 [Protocatechuic acid] | 30.8 mg/mL (≈ 200 mM) | 30.2 mg/mL (≈ 196 mM) | 23.7 mg/mL (≈ 154 mM) | 25.6 mg/mL (≈ 166 mM) | 
O=C(O)c1ccccc1 [Compound 20, Benzoic acid] |  |  |  |  | IC50 [4, 5]: 18.2 mg/mL (≈ 149 mM); IC50 [1, 5]: 25.1 mg/mL (≈ 206 mM); IC50 [2, 5]: 17.7 mg/mL (≈ 145 mM); IC50 [3, 5]: 15.5 mg/mL (≈ 127 mM)
C[C@@H]1O[C@@H](Oc2c(-c3ccc(O)c(O)c3)oc3cc(O)cc(O)c3c2=O)[C@H](O)[C@H](O)[C@H]1O [Quercitrin] | 16 mg/mL (≈ 35.6 mM) | > 50 mg/mL | > 50 mg/mL | 12 mg/mL (≈ 26.8 mM) | 
Nc1ncnc2c1ncn2[C@@H]1O[C@H](CO)[C@@H](OP(=O)(O)O)[C@H]1O [Compound 5, Adenosine 3′-monophospate] |  |  |  |  | IC50 TRAP [4, 5]: 24.51 mg; IC50 ADP [1, 5]: 0.12 mg; IC50 Collagen [2, 5]: 0.28 mg; IC50 AA [3, 5]: 2.41 mg
O=C(/C=C/c1ccc(O)c(O)c1)O[C@@H]1C[C@](O)(C(=O)O)C[C@@H](O)[C@H]1O [Compound 14, Chlorogenic acid] |  |  |  |  | IC50 [4, 5]: 1.1 mg/mL (≈ 3.1 mM); IC50 [1, 5]: 10.1 mg/mL (≈ 28.4 mM); IC50 [2, 5]: 10.1 mg/mL (≈ 28.5 mM); IC50 [3, 5]: 0.77 mg/mL (≈ 2.17 mM)
Nc1ncnc2c1ncn2[C@@H]1O[C@H](COP(=O)(O)O)[C@@H](O)[C@H]1O [Compound 6, Adenosine 5′-monophospate] |  |  |  |  | IC50 TRAP [4, 5]: 24.51 mg; IC50 ADP [1, 5]: 0.12 mg; IC50 Collagen [2, 5]: 0.28 mg; IC50 AA [3, 5]: 2.41 mg
O=C1C[C@@H](c2ccc(O)cc2)Oc2cc(O)cc(O)c21 [Compound 32, Naringenin] |  |  |  |  | IC50 [1, 5]: > 50 mg/mL; IC50 [2, 5]: > 50 mg/mL
Nc1ncnc2c1ncn2[C@@H]1O[C@H](CO)[C@@H](O)[C@H]1O [Compound 2, Adenosine] |  |  |  |  | IC50 [4, 5]: > 50 mg/mL; IC50 [1, 5]: 0.4 mg/mL (≈ 1.5 mM); IC50 [2, 5]: 0.82 mg/mL (≈ 3.07 mM)
Naringin [Compound 26] |  |  |  |  | IC50 TRAP [4, 5]: 9.13 mg; IC50 ADP [1, 5]: 28.1 mg; IC50 Collagen [2, 5]: 29.55 mg; IC50 AA [3, 5]: 0.31 mg
O=c1ccn([C@@H]2O[C@H](CO)[C@@H](O)[C@H]2O)c(=O)[nH]1 [Compound 3, Uridine] |  |  |  |  | IC50 [4, 5]: > 50 mg/mL
O=c1c(O)c(-c2ccc(O)cc2)oc2cc(O)cc(O)c12 [Compound 31, Kaempferol] |  |  |  |  | IC50 [1, 5]: > 50 mg/mL; IC50 [2, 5]: > 50 mg/mL
C[C@@H]1O[C@@H](OC[C@H]2O[C@@H](Oc3c(-c4ccc(O)c(O)c4)oc4cc(O)cc(O)c4c3=O)[C@H](O)[C@@H](O)[C@@H]2O)[C@H](O)[C@H](O)[C@H]1O [Compound 27, Rutin] |  |  |  |  | IC50 [3, 5]: 0.41 mg/mL (≈ 0.672 mM)
O=c1c(O)c(-c2ccc(O)c(O)c2)oc2cc(O)cc(O)c12 [Compound 30, Quercetin] |  |  |  |  | IC50 [1, 5]: > 50 mg/mL; IC50 [2, 5]: > 50 mg/mL
Quercetin-3-O-glycoside [Compound 23] |  |  |  |  | IC50 TRAP [4, 5]: 12.06 mg; IC50 ADP [1, 5]: 25.18 mg; IC50 Collagen [2, 5]: 28.43 mg; IC50 AA [3, 5]: 0.19 mg
O=C(O)C=Cc1ccccc1 [Compound 22, Cinnamic acid] | 18.2 mg/mL (≈ 123 mM) | 26.1 mg/mL (≈ 176 mM) | 8.76 mg/mL (≈ 59.1 mM) | 16.1 mg/mL (≈ 109 mM) | IC50 [3, 5]: 0.22 mg/mL (≈ 1.48 mM)
Nc1nc2c(ncn2[C@@H]2O[C@H](COP(=O)(O)O)[C@@H](O)[C@H]2O)c(=O)[nH]1 [Guanosine 5′-monophosphate] | 20.1 mg/mL (≈ 55.4 mM) | 0.1 mg/mL (≈ 0.275 mM) | 0.31 mg/mL (≈ 0.853 mM) | 0.36 mg/mL (≈ 0.991 mM) | 

Continued, in another order:

IC50 [4, 6] | IC50 [1, 6] | IC50 [2, 6] | IC50 [3, 6] | Compound | further results
26.2 mg/mL (≈ 91.5 mM) | > 50 mg/mL | > 50 mg/mL | 5.18 mg/mL (≈ 18.1 mM) | O=c1cc(-c2ccc(O)c(O)c2)oc2cc(O)cc(O)c12 [Luteolin] | 
12.9 mg/mL (≈ 40.6 mM) | 22.1 mg/mL (≈ 69.6 mM) | 24.6 mg/mL (≈ 77.3 mM) | 0.22 mg/mL (≈ 0.691 mM) | O=c1c(O)c(-c2cc(O)c(O)c(O)c2)oc2cc(O)cc(O)c12 [Myricetin] | 
18.9 mg/mL (≈ 111 mM) | 20.2 mg/mL (≈ 119 mM) | 14.4 mg/mL (≈ 84.5 mM) | 14.4 mg/mL (≈ 84.9 mM) | O=C(O)c1cc(O)c(O)c(O)c1 [Gallic acid] | 
> 50 mg/mL | 3.5 mg/mL (≈ 13 mM) | 9.3 mg/mL (≈ 34.7 mM) |  | OC[C@H]1O[C@@H](n2cnc3c(O)ncnc32)[C@H](O)[C@@H]1O [Inosine] | 
30.4 mg/mL (≈ 135 mM) | 26.1 mg/mL (≈ 116 mM) | 24.9 mg/mL (≈ 111 mM) | 24.8 mg/mL (≈ 110 mM) | COc1cc(/C=C/C(=O)O)cc(OC)c1O [Sinapic acid] | 
17.4 mg/mL (≈ 106 mM) | 32.2 mg/mL (≈ 196 mM) | 28.9 mg/mL (≈ 176 mM) | 9.48 mg/mL (≈ 57.7 mM) | O=C(O)/C=C/c1ccccc1O [o-Coumaric acid] | 
28.3 mg/mL (≈ 143 mM) | 37.2 mg/mL (≈ 188 mM) | 30.8 mg/mL (≈ 155 mM) | 22.5 mg/mL (≈ 113 mM) | COc1cc(C(=O)O)cc(OC)c1O [Syringic acid] | 
